Measurements from patent publication US20190083573A1, “DESIGNER RECEPTORS FOR […] AND METHODS OF USE THEREOF” (The Board of Trustees of the Leland Stanford Junior …, priority 2016, published 2019).

How the values were obtained:
[1] = target: T1, hM4D(Gi) (Homo sapiens, UniProt P08173, A203G/Y113C); assay: Optical withdrawal testing after CNO in hM4D+/ChR2+ mice; assay type: in vivo; conditions: 10 mg/kg CNO i.p., 60 min after administration, n=5 mice
T1 construct: HA (N); expressed in transfected cells; host or cells: mouse sciatic-nerve primary afferent nociceptors, transduced in vivo with AAV6 under the hSyn promoter
T1 sequence (P08173 1-479 Y113C/A203G): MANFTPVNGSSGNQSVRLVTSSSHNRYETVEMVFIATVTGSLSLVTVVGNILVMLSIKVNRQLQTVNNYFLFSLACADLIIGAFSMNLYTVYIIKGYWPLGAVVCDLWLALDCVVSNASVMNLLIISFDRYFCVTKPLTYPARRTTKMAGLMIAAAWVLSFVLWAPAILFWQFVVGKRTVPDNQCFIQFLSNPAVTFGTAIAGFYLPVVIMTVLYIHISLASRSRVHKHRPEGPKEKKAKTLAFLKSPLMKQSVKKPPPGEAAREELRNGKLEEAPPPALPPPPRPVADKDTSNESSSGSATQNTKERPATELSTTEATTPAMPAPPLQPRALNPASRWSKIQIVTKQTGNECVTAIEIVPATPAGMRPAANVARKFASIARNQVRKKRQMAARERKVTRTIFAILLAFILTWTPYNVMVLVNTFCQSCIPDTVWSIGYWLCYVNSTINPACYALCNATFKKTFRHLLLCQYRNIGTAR
Description: (§1) 6-8 week old mice were anesthetized with 2% isoflurane, the thigh region was cleaned and sterilized, and then the sciatic nerve was exposed. A 35 G needle was inserted into the nerve, and 2-5 μl of AAV6-hSyn-HA-hM4D-IRES-mCitrine was injected into the nerve, at the rate of 1 μl/min. The cavity was then closed, analgesics were administered, and the recovery of the mice was observed. In some experiments, mice were co-injected with 3 μl of AAV6-hSyn-ChR2-YFP, to allow for analysis of chemogenetic inhibition of optogenetically evoked pain response.
In mice that were co-injected with AAV6-hSyn-HA-hM4D-IRES-mCitrine and AAV6-hSyn-ChR2-YFP optical withdrawal testing was performed 2-3 weeks post injection. Mice were placed on a glass surface and allowed to habituate for 30-45 minutes. A 473 nm laser was connected to a fiber optic cable, and used to illuminate the paw regions of the mice at varying light intensities. Mice responded to the blue light with characteristic pain-signs, engaging in paw withdrawal, shaking, and licking. […] This value was termed the ‘optical withdrawal threshold’. Due to variation in the effective illumination spot, the optical withdrawal threshold was measured in total illuminated output (in mW), rather than in mW/mm^2. […] Data were then unblinded, and statistical significance assessed using the Student's t-test.

[2] = target: T1, hM4D(Gi); assay: Thermal withdrawal testing (Hargreaves) after intraperitoneal CNO in hM4D(Gi) mice; assay type: in vivo; conditions: 10 mg/kg CNO i.p.
Description: as §1
(§2) Mice were tested 3-5 weeks after intraneural injection. Mice were placed on a Hargreaves apparatus, and allowed to habituate for 1 hour. Thermal withdrawal latencies were then obtained. Mice were then briefly anesthetized with isoflurane, and injected intra-peritoneally with 100 μl of clozapine-N-oxide (for an effective dose of 10 mg/kg) or 100 μl of saline. Post-injection testing was done in a blinded manner, with thermal withdrawal latencies collected at 45-120 minutes post-injection. Data were then unblinded, and statistical significance assessed using the Student's t-test.

[3] = target: T1, hM4D(Gi); assay: Mechanical withdrawal testing (von Frey) after intraperitoneal CNO in mice expressing hM4D; assay type: in vivo; conditions: mice expressing hM4D receptor, 10 mg/kg CNO i.p., 60 min after administration, n=10 paws
Description: as §1
as §2, with “von Frey” for “Hargreaves”, “Mechanical” for “Thermal”, “thresholds” for “latencies”, “obtained using the up-down method of testing.” for “then obtained.”, “mechanical” for “thermal”

[4] = Effect of other analgesics on the light intensity required for a pain-related response (optical withdrawal testing); assay type: in vivo; conditions: mice, blinded experiments
Description: In mice that were co-injected with AAV6-hSyn-HA-hM4D-IRES-mCitrine and AAV6-hSyn-ChR2-YFP optical withdrawal testing was performed 2-3 weeks post injection. Mice were placed on a glass surface and allowed to habituate for 30-45 minutes. A 473 nm laser was connected to a fiber optic cable, and used to illuminate the paw regions of the mice at varying light intensities. Mice responded to the blue light with characteristic pain-signs, engaging in paw withdrawal, shaking, and licking. […] This value was termed the ‘optical withdrawal threshold’. Due to variation in the effective illumination spot, the optical withdrawal threshold was measured in total illuminated output (in mW), rather than in mW/mm^2. Mice were then briefly anesthetized with isoflurane, and injected intra-peritoneally with 100 μl of clozapine-N-oxide (for an effective dose of 10 mg/kg) or 100 μl of saline. Post-injection testing was done in a blinded manner, with optical withdrawal thresholds collected at 60-90 minutes. Data were then unblinded, and statistical significance assessed using the Student's t-test.

[5] = test system: primary afferents; conditions: previously observed optogenetic inhibition of thermal perception; cited from earlier work
[6] = test system: primary afferents; conditions: previously reported optogenetic inhibition of primary afferents; cited from earlier work

With `C[N+]1([O-])CCN(C2=Nc3cc(Cl)ccc3Nc3ccccc32)CC1` [CNO, clozapine-N-oxide] the “effect size, optical withdrawal threshold” value [1] was 1.603, the “increase in required light intensity to achieve a pain-related response (optical withdrawal threshold)” value [1] was 418% and the “effect size, thermal thresholds” value ([2]; 60 minutes post-injection) was 1.903. The “increase in thermal thresholds” value ([2]; 60 minutes post-injection) was 61%, the “effect size, thermal thresholds” value ([2]; 90 minutes post-injection) was 2.2245 and the “increase in thermal thresholds” value ([2]; 90 minutes post-injection) was 54%. For the same molecule, the “effect size, mechanical withdrawal thresholds” value [3] was 1.3 and the “increase in mechanical withdrawal thresholds” value [3] was 45%.

With `NCC1(CC(=O)O)CCCCC1` [gabapentin] the “effect on optical light sensitivity” value [4] was “strong effects”.

B1: NpHR: hyperpolarizing light-activatable polypeptide used for optogenetic inhibition (protein, UniProt P15647 1-291, looked up)
Halorhodopsin: MTETLPPVTESAVALQAEVTQRELFEFVLNDPLLASSLYINIALAGLSILLFVFMTRGLDDPRAKLIAVSTILVPVVSIASYTGLASGLTISVLEMPAGHFAEGSSVMLGGEEVDGVVTMWGRYLTWALSTPMILLALGLLAGSNATKLFTAITFDIAMCVTGLAAALTTSSHLMRWFWYAISCACFLVVLYILLVEWAQDAKAAGTADMFNTLKLLTVVMWLGYPIVWALGVEGIAVLPVGVTSWGYSFLDIVAKYIFAFLLLNYLTSNESVVSGSILDVPSASGTPADD
For B1, the “effect size of inhibition, thermal perception” value [5] is given as 2.05 and the “effect size of inhibition, mechanical” value [6] is given as 0.802.
